Results: ChEMBL document CHEMBL1135610, “Aza-peptide epoxides: a new class of inhibitors selective for clan CD cysteine proteases” (J Med Chem, 2002)
Calls of active or inactive are those of the source. No cut-off for these calls is given here.

What was measured:
[1] = test system: Legumain (Sus scrofa); experiment: Inhibitory activity against legumain
[2] = biological target: T1, Caspase-6 (Homo sapiens) (UniProt P55212); experiment: Inhibitory activity against Caspase-6
T1 sequence (whole entry): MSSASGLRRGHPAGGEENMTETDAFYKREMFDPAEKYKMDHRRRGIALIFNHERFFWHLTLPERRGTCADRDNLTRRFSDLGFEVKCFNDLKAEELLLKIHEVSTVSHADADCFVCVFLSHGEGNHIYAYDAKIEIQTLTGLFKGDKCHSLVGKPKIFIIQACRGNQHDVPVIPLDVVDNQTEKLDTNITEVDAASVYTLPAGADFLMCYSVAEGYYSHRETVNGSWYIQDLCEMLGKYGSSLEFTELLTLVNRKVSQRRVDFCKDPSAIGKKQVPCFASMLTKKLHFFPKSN

[3] = biological target: T2, Caspase-1 (Homo sapiens) (UniProt P29466); experiment: Inhibitory activity against Caspase-1
T2 sequence (whole entry): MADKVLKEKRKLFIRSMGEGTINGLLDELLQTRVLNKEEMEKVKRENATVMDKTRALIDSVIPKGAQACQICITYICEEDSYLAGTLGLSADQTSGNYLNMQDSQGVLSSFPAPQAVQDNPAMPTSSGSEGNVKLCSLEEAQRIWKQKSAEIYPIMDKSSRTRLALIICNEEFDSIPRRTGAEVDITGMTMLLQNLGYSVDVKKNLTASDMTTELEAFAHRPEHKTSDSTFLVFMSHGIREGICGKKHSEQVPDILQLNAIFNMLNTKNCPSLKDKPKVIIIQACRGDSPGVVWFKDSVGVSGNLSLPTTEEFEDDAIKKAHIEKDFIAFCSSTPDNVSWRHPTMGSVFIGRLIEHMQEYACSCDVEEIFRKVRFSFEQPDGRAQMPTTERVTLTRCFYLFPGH

[4] = biological target: T3, Caspase-3 (Homo sapiens) (UniProt P42574); experiment: Inhibitory activity against Caspase-3
T3 sequence (whole entry): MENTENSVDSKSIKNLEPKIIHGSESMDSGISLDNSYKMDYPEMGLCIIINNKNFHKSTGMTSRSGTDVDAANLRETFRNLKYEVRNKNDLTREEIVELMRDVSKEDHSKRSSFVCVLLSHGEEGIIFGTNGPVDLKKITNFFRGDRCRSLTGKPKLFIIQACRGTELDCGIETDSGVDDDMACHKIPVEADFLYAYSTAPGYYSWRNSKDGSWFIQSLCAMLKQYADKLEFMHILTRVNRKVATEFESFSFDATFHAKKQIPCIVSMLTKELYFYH

[5] = biological target: Cathepsin B (Homo sapiens) (UniProt P07858); experiment: Inhibitory activity against Cathepsin B
[6] = biological target: T4, Papain (Carica papaya) (UniProt P00784); experiment: Inhibitory activity against papain.
T4 sequence (whole entry): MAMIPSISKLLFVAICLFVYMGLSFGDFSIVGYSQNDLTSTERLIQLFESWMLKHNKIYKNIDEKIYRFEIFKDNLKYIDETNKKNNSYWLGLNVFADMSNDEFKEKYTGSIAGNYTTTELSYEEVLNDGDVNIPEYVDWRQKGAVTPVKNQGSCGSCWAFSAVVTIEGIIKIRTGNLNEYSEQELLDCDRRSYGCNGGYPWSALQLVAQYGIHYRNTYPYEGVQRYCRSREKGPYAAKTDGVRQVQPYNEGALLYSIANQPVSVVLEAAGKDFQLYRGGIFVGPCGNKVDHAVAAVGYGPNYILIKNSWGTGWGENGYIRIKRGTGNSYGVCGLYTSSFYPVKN

[7] = biological target: Caspase-8 (Homo sapiens) (UniProt Q14790); experiment: Inhibitory activity against Caspase-8
Sequence of Caspase-8 (Homo sapiens) (Q14790 217-374 limits assumed): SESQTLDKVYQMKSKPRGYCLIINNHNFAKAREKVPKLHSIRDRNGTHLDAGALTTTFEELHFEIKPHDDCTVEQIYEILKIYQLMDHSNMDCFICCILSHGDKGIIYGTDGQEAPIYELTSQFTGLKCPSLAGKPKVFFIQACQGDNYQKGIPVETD
Sequence of Caspase-8 (Homo sapiens) (Q14790 385-479 limits assumed): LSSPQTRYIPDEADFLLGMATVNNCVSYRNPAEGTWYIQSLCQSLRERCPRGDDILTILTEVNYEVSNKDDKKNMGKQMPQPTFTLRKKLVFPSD

[8] = biological target: Cathepsin B (Homo sapiens) (UniProt P07858); experiment: Inhibitory activity against Cathepsin B; No inhibition
[9] = biological target: T4, Papain (Carica papaya); experiment: Inhibitory activity against papain; No inhibition
[10] = test system: Legumain (Sus scrofa); experiment: Inhibitory activity against legumain; No inhibition

Row | SMILES | k obs / 1 [1] | k obs / 1 [2] | k obs / 1 [3] | k obs / 1 [4] | k obs / 1 [5] | k obs / 1 [6] | k obs / 1 [7] | NI [8] | NI [9] | k obs / 1 [9] | NI [10]
1 | CC(C)[C@H](NC(=O)CCc1ccccc1)C(=O)N[C@@H](C)C(=O)NN(CC(=O)O)C(=O)C1OC1C(=O)OCc1ccccc1 (stereo not given in full) | 21 M⁻¹ s⁻¹ | 52 M⁻¹ s⁻¹ | 36200 M⁻¹ s⁻¹ | 58 M⁻¹ s⁻¹ | < 10 M⁻¹ s⁻¹ | < 10 M⁻¹ s⁻¹ | 63 M⁻¹ s⁻¹ |  |  |  | 
2 | CCOC(=O)C1OC1C(=O)N(CC(N)=O)NC(=O)[C@@H](C)NC(=O)[C@@H](C)NC(=O)Cc1ccccc1 (stereo in doubt; 17) | 142 M⁻¹ s⁻¹ |  |  |  |  |  |  | inactive | inactive |  | 
3 | CCOC(=O)C1OC1C(=O)N(CC(C)C)NC(=O)[C@@H](CC(C)C)NC(=O)[C@@H](CC(C)C)NC(=O)Cc1ccccc1 (stereo in doubt; 20) |  |  |  |  |  |  |  | inactive |  | 35 M⁻¹ s⁻¹ | inactive
4 | CC(C)[C@H](NC(=O)CCc1ccccc1)C(=O)N[C@@H](C)C(=O)NN(CC(=O)O)C(=O)C1OC1CCc1ccccc1 (stereo not given in full) |  | < 10 M⁻¹ s⁻¹ | 6130 M⁻¹ s⁻¹ | < 10 M⁻¹ s⁻¹ |  |  | < 10 M⁻¹ s⁻¹ | inactive | inactive |  | inactive
